Test results as given in patent US8343580B2, “Organometallic compounds” (Rohm and Haas Electronic Materials LLC, priority 2009, dated 2013).

Tests used:
[1] = Solubility in organic solvents at room temperature by direct dissolution method; assay type: physicochemical; settings: for Solubility: room temperature; for Solubility in aromatic solvents: toluene and tetralin, by NMR spectroscopy and direct dissolution method
Experimental: The solubility of N,N′-di-tert-butylacetamidinato-N,N′-di-tert-butylacetamidinatocarbamoyl dicarbonyl Ruthenium(II) (“Ru-Cbm-Invention”, from Example 1) and bis(N,N′-di-tert-butylacetamidinato) dicarbonyl Ruthenium(II) (“Ru-AMD-Comparative”) were determined at room temperature in a variety of solvents by direct dissolution method. The solid Ru-AMD-Comparative compound was prepared by the synthetic route described in R. Gordon et al., The Open Inorganic Chemistry Journal, 2 (2008) 11. Compounds with less than 0.01 wt % dissolved were considered to be sparingly soluble.

[2] = Decomposition temperature by accelerated rate calorimetry (ARC); assay type: physicochemical; settings: ARC adiabatic calorimeter, self-heating exceeding 0.02° C./minute
Experimental: The decomposition temperature of N,N′-di-tert-butylacetamidinato-N,N′-di-tert-butylacetamidinatocarbamoyl dicarbonyl Ruthenium(II) (“Ru(AMD)-Cbm”) was determined using accelerated rate calorimetry (ARC™ adiabatic calorimeter available from Arthur D. Little). A sample of the compound was placed in a spherical bomb that was connected to a sealed pressure measurement system. A thermocouple was attached to the outside of the bomb and the bomb was placed in the center of the calorimeter assembly. The calorimeter assembly has 3 zones, each zone having its own thermocouple and heaters. The ARC™ calorimeter uses a heat-wait-search-exotherm program. The calorimeter and the sample were heated to a start temperature. The sample and calorimeter temperatures equilibrated during the wait portion of the program. Next, the calorimeter monitored the sample for self-heating (exceeding 0.02° C./minute) during the search portion of the program to determine the onset temperature of the exotherm. To be useful in ALD processes, a precursor should not decompose at temperatures at or below 140° C., and preferably not at or below 150° C.

[3] = Mixture of Diphenyl ether and Biphenyl
[4] = Polyethylene glycol dibutyl ether

For `CC(=NC(C)(C)C)[N]([Ru][N](C(C)=NC(C)(C)C)C(C)(C)C)C(C)(C)C.[C-]#[O+].[C-]#[O+]` [Ru-AMD, bis(N,N′-di-tert-butylacetamidinato) dicarbonyl Ruthenium(II), reference compound], the Solubility ([1]; Cyclohexylbenzene) was <0.01 wt %, the Solubility ([1]; Cyclohexylbenzene:LAB (1:1)) was <0.01 wt % and the Solubility ([1]; LAB) was <0.01 wt %. The Solubility [1, 3] was <0.01 wt %, the Solubility ([1]; Pentamethyldiethylenetriamine) was <0.01 wt % and the Solubility [1, 4] was <0.01 wt %. The Solubility ([1]; THF) was 0.7 wt %, the Solubility ([1]; Tetralin) was <0.01 wt % and the Solubility ([1]; Toluene) was <0.01 wt %. For the same compound, the Solubility ([1]; n-Octane) was “insoluble” and the “Solubility in aromatic solvents” value [1] was “little to no solubility”.
In the case of `CC1=[N+](C(C)(C)C)[Ru-4]2([C]#[O+])([C]#[O+])([C](=O)N1C(C)(C)C)[N](C(C)(C)C)C(C)=[N+]2C(C)(C)C` [Ru-Cbm, N,N′-di-tert-butylacetamidinato-N,N′-di-tert-butylacetamidinatocarbamoyl dicarbonyl Ruthenium(II)], the “Temperature up to which the sample was stable (decomposition, onset of exotherm)” value [2] is reported as “up to 250 °C”, the Solubility ([1]; Cyclohexylbenzene) is reported as 6.0 wt % and the Solubility ([1]; Cyclohexylbenzene:LAB (1:1)) is reported as 6.0 wt %. The Solubility ([1]; LAB) was 3.0 wt %, the Solubility [1, 3] was 12.0 wt % and the Solubility ([1]; Pentamethyldiethylenetriamine) was 15.0 wt %. It also gave a Solubility [1, 4] of 8.0 wt %, a Solubility ([1]; THF) of 43.6 wt % and a Solubility ([1]; Tetralin) of 8.5 wt %. For the same compound, the Solubility ([1]; Toluene) was 38.5 wt %, the “Increase of solubility as compared to Ru-AMD” value ([1]; in tetrahydrofuran) was 62 fold and the Solubility ([1]; n-Octane) was 2.3 wt %. The “Solubility in aromatic solvents” value [1] was “soluble”.
